Laboratory results taken from PMC11796312, “Multifunctional, Fluorene‐Based Modulator of Cholinergic and GABAergic Neurotransmission as a Novel Drug Candidate for Palliative Treatment of Alzheimer's Disease” (Angewandte Chemie (International Ed. in English), 2024).
“Also recorded” adds a separate entry of the source. Where two headings read alike, the source gives them in different places.

How the values were obtained:
[1] = system: hGAT‐3; conditions: cited from earlier work
[2] = system: mice treated with scopolamine; test: Passive avoidance (PA) task, scopolamine-induced amnesia; format: in vivo; conditions: mouse, in vivo
Experimental: Animals and housing conditions
In all pharmacodynamic in vivo experiments, except for the Barnes maze (BM) task, adult male Albino Swiss (CD-1) mice weighing between 18 and 22 g and purchased from the Animal Breeding Farm of the Faculty of Pharmacy, Jagiellonian University Medical College were used. In BM task, C57BL/6J mice of the same weight (Animalab, Poland) were used.
Animals were housed in cages (10 mice per cage) at a constant temperature of 22 ± 2 °C, humidity of 55 ± 10%, and a light/dark (12:12) cycle (lights on at 7 AM). Before the experiments, the animals had unlimited access to food and water. Specified conditions for the maintenance of mice were ensured throughout the experiments, including tree bedding (Transwior, Poland) and cage enrichment (tunnels, nesting material, wooden igloos, etc.). […]
doses for behavioral assays. Lower doses were also assessed if at least one of them was […]
On the first day, during the acquisition trial (a conditioning phase), the test compound 6, scopolamine, and vehicle were injected. […] The latency between opening the guillotine gate and the mouse entering the black compartment was measured for each mouse. On the next day, during the retention (drug-off) trial, the mice were placed again into the white compartment for a 30-s habituation period, and the latency to enter the black compartment was measured for each mouse. […]

[3] = target: T1, human butyrylcholinesterase (hBuChE) (Homo sapiens, UniProt P06276); test: biochemical; conditions: inhibitor concentration 1 μM; read-out: hBuChE % inh.
T1 construct: from human plasma was from Vivonics (Bedford, MA, USA); purchased Vivonics (Bedford, MA, USA); host or cells: human plasma

[4] = system: BuChE; conditions: 1 or 5 µM compound (printed '1 or 5 M'), vs DMSO

T1 sequence (P06276 29-602): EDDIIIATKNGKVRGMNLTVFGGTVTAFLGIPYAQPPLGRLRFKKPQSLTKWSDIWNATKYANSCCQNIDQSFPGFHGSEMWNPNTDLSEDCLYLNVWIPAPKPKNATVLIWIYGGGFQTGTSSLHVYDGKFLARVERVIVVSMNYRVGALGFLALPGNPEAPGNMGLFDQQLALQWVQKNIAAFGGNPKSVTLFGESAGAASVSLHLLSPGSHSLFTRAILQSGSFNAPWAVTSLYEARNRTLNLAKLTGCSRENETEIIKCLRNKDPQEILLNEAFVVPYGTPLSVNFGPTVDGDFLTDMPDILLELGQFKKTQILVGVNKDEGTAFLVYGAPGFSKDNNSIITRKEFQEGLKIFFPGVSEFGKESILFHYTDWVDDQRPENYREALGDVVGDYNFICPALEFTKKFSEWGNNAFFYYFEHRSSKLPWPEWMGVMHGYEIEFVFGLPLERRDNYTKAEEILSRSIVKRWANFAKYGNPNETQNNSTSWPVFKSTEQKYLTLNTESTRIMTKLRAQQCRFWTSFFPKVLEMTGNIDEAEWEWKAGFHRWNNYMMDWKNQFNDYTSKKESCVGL

With `COc1ccc(C(OCCN2CCC[C@H](C(=O)O)C2)(c2ccc(OC)cc2)c2ccc(OC)cc2)cc1` [(S)‐SNAP‐5114, reference compound] as the compound, how does the IC50 [1] read?
Its IC50 is 45 µM.

What does the source list for `O=C(CC(c1ccccc1)c1ccccc1)N[C@@H](Cc1ccccc1)[C@@H](O)CNCc1ccccc1` [Compound I]?
pro-cognitive effect in passive avoidance task [2]: did not observe pro‐cognitive effects; also recorded: non active; inhibition at 1 µM [3]: 67.7%; IC50 ([1]; earlier screening): 3 µM

With `Nc1c2c(nc3ccccc13)CCCC2` [Tacrine, reference compound] as the compound, how does the “Melting temperature (Tm) of BuChE” value [4] read?
The value was “increased Tm of BuChE”.
